Assay results: patent publication US20120282169A1, “DETECTION AND TREATMENT OF TRAUMATIC BRAIN INJURY” (Adlyfe, Inc., priority 2009, published 2012)
[ ]: non-standard residue; d: D form. The star is where a group is joined. Butanoyl(4-pyren-1-yl) = O=C(CCCc1ccc2ccc3cccc4ccc1c2c34)*; Biotin = O=C1N[C@H]2[C@H](CS[C@H]2CCCCC(=O)*)N1

Key:
Aβ42 fiber = Aβ42 fiber (Homo sapiens, UniProt P05067); assay: Self-fluorescence specificity assay of probe in 10% human CSF; type: binding; parameters: unit not given here; conditions: 70 nM probe; 10% (v/v) normal human CSF; FIG. 2
Procedure: (§1) The specificity of the probe is confirmed as follows. 70 nM of the peptide probe of SEQ ID NO:22 is incubated with several potential substrates in a solution consisting of 10 mM Hepes (pH 7.0), 0.0074% Tween20 and 10% (v/v) normal human CSF. […] There also is a significant response to Aβ42 fiber down to at least […]. […] Since fibers are easily removed from the reaction by a centrifugation step, specificity for amyloid beta oligomers is easily obtained.

Aβ40 monomer [1] = molecular target: T1, Aβ40 monomer (Homo sapiens, UniProt P05067); assay: as above; type: binding; conditions: 70 nM probe; 10% (v/v) normal human CSF; FIG. 2
Procedure: as §1

Aβ40 fiber = Aβ40 fiber (Homo sapiens, UniProt P05067); assay: as above; type: binding; conditions: 70 nM probe; 10% (v/v) normal human CSF; FIG. 2
Procedure: as §1

carbonic anhydrase = assay: as above; type: binding; conditions: 70 nM probe; 10% (v/v) normal human CSF; FIG. 2
Procedure: as §1

Aβ42 monomer [2] = molecular target: T2, Aβ42 monomer (Homo sapiens, UniProt P05067); assay: as above; type: binding; conditions: 70 nM probe; 10% (v/v) normal human CSF; FIG. 2
Procedure: as §1

human serum albumin [3] = molecular target: T3, human serum albumin (Homo sapiens, UniProt P02768); assay: as above; type: binding; conditions: 70 nM probe; 10% (v/v) normal human CSF; except at the highest dose, 0.16 mg/mL; FIG. 2
Procedure: as §1

synthetic Aβ42 oligomer = synthetic Aβ42 oligomer (Homo sapiens, UniProt P05067); assay: Self-fluorescence assay of pyrene-labeled probe with synthetic Aβ42 oligomer; type: binding; conditions: 70 nM probe
Procedure: 70 nM of the peptide probe of SEQ ID NO:2 is incubated with 4000, 2000, 1000, 450, 250 and 0 pM synthetic Aβ42 oligomer (in triplicate) in a solution consisting of 10 mM Hepes (pH 7.0), 0.0074% Tween20 and 30% (v/v) normal human CSF (Bioreclamations, Inc.) for 0, 3, and 18 hours at room temperature in a final volume of 200 μL in a microtiter plate. The plate is then analyzed using a Tecan safire^2 fluorescence plate reader. For each sample, the net self-fluorescence response (fluorescence emission from 370-385 nm) is determined by subtraction of the self-fluorescence response of the control (0 pM) from the fluorescence response of the experimental sample.
The specificity of the probe is confirmed as follows. 70 nM of the peptide probe of SEQ ID NO:22 is incubated with several potential substrates in a solution consisting of 10 mM Hepes (pH 7.0), 0.0074% Tween20 and 10% (v/v) normal human CSF. […] There also is a significant response to Aβ42 fiber down to at least 100 nN. […]
70 nM of each of the two peptoid probes 1 or 2 is incubated with 15, 5, 1.5 or 0 nM synthetic Aβ42 oligomer (in triplicate). […] The plate is then analyzed using a Tecan safire^2 fluorescence plate reader. For each sample, the self-fluorescence response (fluorescence emission from 370-385 nm) of the peptoid is plotted as a function of amyloid beta aggregate concentration.

Aβ40 Dimer = conditions: Mouse
Procedure: (§2) A plate-based ELISA-like assay was developed in which the above-described peptide probes may be used to capture and detect target amyloid beta protein (such as oligomers). […] Streptavidin-coated 96-well plates are prepared, followed by introduction of biotinylated peptide. Sample is then added to the wells and allowed to incubate, such as for two hours at room temperature. Any target amyloid beta protein in the sample will be capture by the immobilized peptide probe. The plate is then washed, such as using a low salt buffer to eliminate potential interfering factors (e.g. endogenous proteins, lipids, and other debris). The remaining amyloid beta aggregate-peptide probe complex is bound to a reporter antibody that is specific for the N-terminus of the amyloid beta sequence (6E10-HRP), and detected by addition of 3,3′,5,5′-tetramethylbenzidine (TMB).
(§3) Soluble brain extracts are prepared according to a known method. For example 5 mL tris-buffered saline (PH 7.4) is added per gram of frozen brain tissue, and then homogenized with a dounce homogenizer (25 strokes). The material is then centrifuged at 21,900× g for 30 minutes at 4 C. The resulting TBS supernatant (soluble extract) is used at 10-30% (v/v) final concentration in the following assays.

Aβ40 monomer [4] = molecular target: T1, Aβ40 monomer; assay: Plate-based ELISA-like assay with immobilized biotinylated peptide probe; type: binding; conditions: for Limit of detection, Aβ40 Monomer: up to 15 nM
Procedure: as §2, §3

Aβ42 monomer [5] = molecular target: T2, Aβ42 monomer; assay: as above; type: binding; conditions: for Limit of detection, Aβ42 Monomer: up to 15 nM
Procedure: as §2, §3

Aβ42 Oligo (Type B) = Aβ42 Oligo (Type B) (Homo sapiens, UniProt P05067); assay: as above; type: binding
Procedure: as §2, §3

human serum albumin [6] = molecular target: T3, human serum albumin; assay: as above; type: binding
Procedure: as §2, §3

[7] = molecular target: synthetic Aβ42 oligomer (Aβ42 Oligo Type A) (Homo sapiens, UniProt P05067); assay: Plate-based ELISA-like assay with immobilized biotinylated peptide probe (6E10-HRP/TMB detection); type: binding
Procedure: FIG. 4A and FIG. 4B illustrate the results in buffer and 10% soluble mouse brain extract using SEQ ID NO:41 as a peptide probe. […] The white bars indicate control reactions in which peptide are not added. Black bars show the complete reaction in which 9000, 1500, 250, 42, 7, 1.2, 0.2, or 0 pM Aβ42 oligomer is added (in triplicate) to wells containing bound peptide probe of SEQ ID NO:41.
The white bars indicate control reactions in which peptide are not added. Black bars show the complete reaction in which 10% human TBS brain extract containing 750, 250, 85, 28, 9.5, 3.1, or 0 pM Aβ42 oligomer is added (in triplicate) to wells containing bound peptide probe of SEQ ID NO:41.
FIG. 5A and FIG. 5B illustrate the results in 10% (A) and 30% (B) human brain TBS extract using SEQ ID NO:41 as a peptide probe. […] The white bars indicate control reactions in which peptide is not added. Black bars show the complete reaction in which 10% human TBS brain extract containing 750, 250, 85 or 0 pM Aβ42 oligomer is added (in triplicate) to wells containing bound peptide probe of SEQ ID NO:41.
The white bars indicate control reactions in which peptide are not added. Black bars show the complete reaction in which 30% human TBS brain extract containing 750, 250, 85, 28, 9.5, 3.1, or 0 pM Aβ42 oligomer is added (in triplicate) to wells containing bound peptide probe of SEQ ID NO:41.

human serum albumin [8] = molecular target: human serum albumin (human, UniProt P02768 25-609); assay: plate assay, biotinylated probe on streptavidin plate, 6E10-HRP/TMB detection; Human column (brain extract)

Molecule: PBA-KLVFFAEDVGSNKGAIIGLMK(PBA)rr-NH2 ({Butanoyl(4-pyren-1-yl)}-KLVFFAEDVGSNKGAIIGLMK(Butanoyl(4-pyren-1-yl))[dR][dR]-NH2; SMILES CC[C@H](C)[C@H](NC(=O)[C@H](C)NC(=O)CNC(=O)[C@H](CCCCN)NC(=O)[C@H](CC(N)=O)NC(=O)[C@H](CO)NC(=O)CNC(=O)[C@@H](NC(=O)[C@H](CC(=O)O)NC(=O)[C@H](CCC(=O)O)NC(=O)[C@H](C)NC(=O)[C@H](Cc1ccccc1)NC(=O)[C@H](Cc1ccccc1)NC(=O)[C@@H](NC(=O)[C@H](CC(C)C)NC(=O)[C@H](CCCCN)NC(=O)CCCc1ccc2ccc3cccc4ccc1c2c34)C(C)C)C(C)C)C(=O)N[C@H](C(=O)NCC(=O)N[C@@H](CC(C)C)C(=O)N[C@@H](CCSC)C(=O)N[C@@H](CCCCNC(=O)CCCc1ccc2ccc3cccc4ccc1c2c34)C(=O)N[C@H](CCCNC(=N)N)C(=O)N[C@H](CCCNC(=N)N)C(N)=O)[C@@H](C)CC) [SEQ ID NO:22, WT, with 2 C-terminal dArg residues, and alternate label site]
- lowest Aβ42 fiber concentration giving significant response (Aβ42 fiber): ≤ 100
- peptide fluorescence response to Aβ40 monomer (Aβ40 monomer [1]): little or no peptide fluorescence response
- peptide fluorescence response to Aβ40 fiber (Aβ40 fiber): little or no peptide fluorescence response
- peptide fluorescence response to carbonic anhydrase (carbonic anhydrase): little or no peptide fluorescence response
- peptide fluorescence response to Aβ42 monomer (Aβ42 monomer [2]): little or no peptide fluorescence response
- peptide fluorescence response to human serum albumin (human serum albumin [3]): little or no peptide fluorescence response
- peptide probe fluorescence response to Aβ42 oligomer (synthetic Aβ42 oligomer; 10% (v/v) normal human CSF, FIG. 2): strong and dose-dependent response

Molecule: PBA-KLVFFAEDVGSNKHAIIELMK(PBA)-NH2 ({Butanoyl(4-pyren-1-yl)}-KLVFFAEDVGSNKHAIIELMK(Butanoyl(4-pyren-1-yl))-NH2; SMILES CC[C@H](C)[C@H](NC(=O)[C@H](C)NC(=O)[C@H](Cc1c[nH]cn1)NC(=O)[C@H](CCCCN)NC(=O)[C@H](CC(N)=O)NC(=O)[C@H](CO)NC(=O)CNC(=O)[C@@H](NC(=O)[C@H](CC(=O)O)NC(=O)[C@H](CCC(=O)O)NC(=O)[C@H](C)NC(=O)[C@H](Cc1ccccc1)NC(=O)[C@H](Cc1ccccc1)NC(=O)[C@@H](NC(=O)[C@H](CC(C)C)NC(=O)[C@H](CCCCN)NC(=O)CCCc1ccc2ccc3cccc4ccc1c2c34)C(C)C)C(C)C)C(=O)N[C@H](C(=O)N[C@@H](CCC(=O)O)C(=O)N[C@@H](CC(C)C)C(=O)N[C@@H](CCSC)C(=O)N[C@@H](CCCCNC(=O)CCCc1ccc2ccc3cccc4ccc1c2c34)C(N)=O)[C@@H](C)CC) [SEQ ID NO:2, Salt bridge at G29H and G33E]
- Aβ42 oligomer concentration statistically distinguishable from the control reaction (net self-fluorescence response, t-test) (synthetic Aβ42 oligomer; 10 mM Hepes pH 7.0, 0.0074% Tween20, 30% (v/v) normal human CSF, emission 370-385 nm, FIG. 1): 450 pM

Molecule: PBA-KLVFFAEDVGSNKHAIIELMK(PBA)GLVPR GSGK(biotin)-NH2 [SEQ ID NO:41]
- Limit of detection, Aβ40 Dimer (Aβ40 Dimer): 850 pM
- Limit of detection, Aβ40 Monomer (Aβ40 monomer [4]; Human): Not detected
- Limit of detection, Aβ40 Monomer (Aβ40 monomer [4]; Mouse): Not detected
- TMB response to Aβ40 monomer (Aβ40 monomer [4]; plate assay): little to no TMB response
- Limit of detection, Aβ42 Monomer (Aβ42 monomer [5]; Human): Not detected
- Limit of detection, Aβ42 Monomer (Aβ42 monomer [5]; Mouse): Not detected
- TMB response to Aβ42 monomer (Aβ42 monomer [5]; plate assay): little to no TMB response
- Limit of detection, Aβ42 Oligo (Type B) (Aβ42 Oligo (Type B); Human): 8.5 pM
- Limit of detection, Aβ42 Oligo (Type B) (Aβ42 Oligo (Type B); Mouse): ~8.5 pM
- Limit of detection, has (human serum albumin [6]; Human, up to 0.15 mg/mL): Not detected
- Limit of detection, has (human serum albumin [6]; Mouse): Not detected
- TMB response to human serum albumin (human serum albumin [6]; plate assay): little to no TMB response
- lowest amount of amyloid beta aggregate detected in plate assay (t-test) ([7]; 10% human TBS brain extract, FIG. 4B): 28 pM
- amyloid beta aggregate detectable down to ([7]; 30% human TBS brain extract, FIG. 5B): ≤ 85 pM
- Limit of detection, Aβ42 Oligo (Type A) ([7]; Human): ~28 pM
- Limit of detection, Aβ42 Oligo (Type A) ([7]; Mouse): ~28 to 85 pM
- lowest amount of amyloid beta aggregate detected in plate assay (t-test) ([7]; buffer system, FIG. 4A): 7 pM

B1: peptide probe of SEQ ID NO:41 (peptide)
peptide: {Butanoyl(4-pyren-1-yl)}-KLVFFAEDVGSNKHAIIELMK(Butanoyl(4-pyren-1-yl))GLVPRGSGK(Biotin)-NH2
SMILES: CC[C@H](C)[C@H](NC(=O)[C@H](C)NC(=O)[C@H](Cc1c[nH]cn1)NC(=O)[C@H](CCCCN)NC(=O)[C@H](CC(N)=O)NC(=O)[C@H](CO)NC(=O)CNC(=O)[C@@H](NC(=O)[C@H](CC(=O)O)NC(=O)[C@H](CCC(=O)O)NC(=O)[C@H](C)NC(=O)[C@H](Cc1ccccc1)NC(=O)[C@H](Cc1ccccc1)NC(=O)[C@@H](NC(=O)[C@H](CC(C)C)NC(=O)[C@H](CCCCN)NC(=O)CCCc1ccc2ccc3cccc4ccc1c2c34)C(C)C)C(C)C)C(=O)N[C@H](C(=O)N[C@@H](CCC(=O)O)C(=O)N[C@@H](CC(C)C)C(=O)N[C@@H](CCSC)C(=O)N[C@@H](CCCCNC(=O)CCCc1ccc2ccc3cccc4ccc1c2c34)C(=O)NCC(=O)N[C@@H](CC(C)C)C(=O)N[C@H](C(=O)N1CCC[C@H]1C(=O)N[C@@H](CCCNC(=N)N)C(=O)NCC(=O)N[C@@H](CO)C(=O)NCC(=O)N[C@@H](CCCCNC(=O)CCCC[C@@H]1SC[C@@H]2NC(=O)N[C@@H]21)C(N)=O)C(C)C)[C@@H](C)CC
notes: P22 with a thrombin site linker and biotin at the C-terminus, immobilised on streptavidin-coated plates; also called AD317; biotinylated peptide probe
- binding result (human serum albumin [8]): no binding (tested: up to 0.15 mg/mL)
